In patent US20230054194A1, “Methods of Treating Cancer” (ARIAGEN, INC., priority 2018, published 2023):

Tests used:
Hepa1-6 = Hepa1-6 subcutaneous syngeneic liver cancer mouse model (Study 9), tumor growth inhibition; assay type: in vivo, mouse (C57BL/6); conditions: for Tumor size / TGI(%): Hepa1-6 model, study end day Day 26; for Tumor size: Mean ± SEM, in mm³
Experimental: (§1) In this example, the in vivo anti-tumor efficacy of ARI-001, ARI-002, ARI-003, and ARI-143 and their combinations with an anti-PD-1 antibody was evaluated using a panel of twelve subcutaneous syngeneic mouse tumor models.
(§2) Eleven subcutaneous syngeneic mouse tumor models were generated by innoculating female BALB/C or C57BL/6 mice with cancer cells at their right lower or right front flank followed by randomization as detailed in Table 4 below.
(§3) A solution of a rat monoclonal anti-mouse PD-1 antibody (isotype IgG2a, κ) at a concentration of 6.61 mg/ml was obtained from BioXcell (InVivoMAb anti-mouse PD-1 (CD279), Clone RMP1-14, Cat #BE0146)) and store at 4° C. The antibody solution was diluted with PBS to obtain a 1 mg/ml dosing solution.
(§4) ARI-001, ARI-002, and ARI-003 powder was stored at −20° C. The powder of each compound was dissolved in DMSO to obtain dosing solutions at 106.7, 80, and 53.33 mg/ml for administration to mice at 160, 120, and 80 mg/kg, respectively. ARI-143 was similarly prepared.
(§5) Twelve studies using the twelve subcutaneous syngeneic mouse tumor models were performed. In each study, 80 mice were enrolled and randomly allocated to eight different study groups, with 10 mice in each study group. The mean tumor size at randomization was approximately 80-120 mm^3 (around 100 mm^3). Randomization was performed based on “Matched distribution” randomization method (StudyDirector™ software, version 3.1.399.19). […] All the drugs and vehicle controls were injected to the mice intraperitoneally.
(§6) After tumor cell inoculation, the animals were checked daily for morbidity and mortality. At the time of routine monitoring, the animals were checked for any effects of tumor growth and treatments on behavior such as mobility, food and water consumption, body weight gain/loss (body weights were measured twice or three times per week after randomization), and any other abnormalities. Mortality and observed clinical signs were recorded for individual animals. Tumor volumes were measured twice or three times weekly after randomization in two dimensions using a caliper, and the volume was expressed in mm^3 using the formula: […]
(§7) where V is tumor volume, L is tumor length (the longest tumor dimension) and W is tumor width (the longest tumor dimension perpendicular to L).
(§8) The study was terminated when the mean tumor volume (MTV) in the vehicle group reached a value of 2,000 mm^3. Tumor growth inhibition (TGI) is an indication of antitumor activity, and expressed as: […]
(§9) where T and C are the MTV (or weight) of the treated and control groups, respectively, on a given day. Statistical analysis of the difference in MTV among the groups was conducted using the data collected on the day when the MTV of the vehicle group reached the humane endpoints, so that TGI could be derived for all or most mice enrolled in the study.
(§10) Statistical analysis of differences in MTV among the groups was conducted by Independent-Samples T Test using the data collected. All data were analyzed with SPSS (Statistical Product and Service Solutions) version 18.0 (IBM, Armonk, N.Y., U.S.). P-values were rounded to three decimal places, with the exception that raw P-values less than 0.001 were stated as P<0.001. All tests were two-sided. P<0.05 was considered to be statistically significant.
FIG. 68 is a graph showing the mean tumor volume on different study days in the study groups as indicated according to Study 9 (Hepal-6). The study end day was Day 26.

CT26 = assay: CT-26 subcutaneous syngeneic colon cancer mouse model (Study 4), tumor growth inhibition; assay type: in vivo, mouse (BALB/C); conditions: for TGI(%) / Tumor size (Mean ± SEM): CT-26 model, i.p., ARI compounds 160 mg/kg QD × 15 doses, Anti-PD-1 10 BIW × 5 doses, study end day Day 23
Experimental: as §1, §2, §3, §4, §5, §6, §7, §8, §9, §10
FIG. 63 is a graph showing the mean tumor volume on different study days in the study groups as indicated according to Study 4 (CT-26). The study end day was Day 23.

EMT-6 = EMT-6 subcutaneous syngeneic breast cancer mouse model (Study 2 and Study 12), tumor growth inhibition; assay type: in vivo, mouse (BALB/C); conditions: for TGI(%) / Tumor size (Mean ± SEM): EMT-6 model (Study 2), i.p., ARI-001 160/120 mg/kg QD × 15/6 doses, ARI-002 and ARI-003 160 mg/kg QD × 21 doses, Anti-PD-1 10 BIW × 6 doses, study end day Day 27; for anti-tumor potency of anti-PD-1 antibody combined with the compound, compared to the antibody alone or the vehicle / anti-tumor potency of the compound combined with anti-PD-1 antibody, compared to being used alone: EMT-6 syngeneic breast cancer model
Experimental: as §1, §2, §3, §4, §5, §6, §7, §8, §9, §10
FIG. 61 is a graph showing the mean tumor volume on different study days in the study groups as indicated according to Study 2 (EMT-6). The study end day was Day 27.

SMILES	Tumor size (Hepa1-6)	TGI(%) (Hepa1-6)	TGI(%) (CT26)	Tumor size (Mean ± SEM) (CT26) [mm^3]	anti-tumor potency of anti-PD-1 antibody combined with the compound, compared to the antibody alone (CT26; CT-26 syngeneic colon cancer model)	TGI(%) (EMT-6)	Tumor size (Mean ± SEM) (EMT-6) [mm^3]	anti-tumor potency of anti-PD-1 antibody combined with the compound, compared to the antibody alone or the vehicle (EMT-6)	anti-tumor potency of the compound combined with anti-PD-1 antibody, compared to being used alone (EMT-6)	anti-tumor potency of the compound combined with anti-PD-1 antibody, compared to being used alone (Hepa1-6; Hepa1-6 syngeneic liver cancer model)
CCC(=O)c1csc(C(=O)c2c[nH]c3ccccc23)n1 [ARI-002]	1018.26 ± 232.72	37	51	1112.29 ± 124.36	statistically significant increase	55	842.08 ± 135.38	statistically significant increase	statistically significant increase	
COC(=O)c1csc(C(=O)c2c[nH]c3ccccc23)n1 [ARI-001]	1174.25 ± 229.74	27	56	1015.32 ± 114.50		53	871.63 ± 142.67	statistically significant increase	statistically significant increase	statistically significant increase
